Assays:
[1] = test system: Trialeurodes vaporariorum; experiment: Activity of Sulphur + Fluazinam against Trialeurodes vaporariorum plates; format: in vivo
Description: (§1) Colby's method is used to determine if synergy exists for a combination of active ingredients. According to Colby, the expected action (E) of active ingredients A+B is:
(§2) [formula] • where E=expected efficacy, A and B=the efficacy of two active ingredients A and B at a given dose.
(§3) When the percentage of control observed (O) for the combination is greater than the expected (E) percentage, there is a synergistic effect. The synergism ratio (R) is calculated as the ratio between the expected values and observed values.
(§4) Furthermore, the miticidal and insecticidal efficacy of the compositions are also evaluated with reference to a scale of 0% to 100% in comparison with untreated control plots. 0 means no control and 100 means complete control of the target pest.
(§5) The experiments were conducted by applying commercially available formulations of Sulphur and other mixture partners, alone or with their tank-mixed compositions. The compositions were diluted with water.
(§6) Each formulation with active ingredient is diluted with water and biological efficacy trials on target pest are conducted.

[2] = test system: Colletotrichum gloeosporioides; experiment: Activity against Colletotrichum gloeosporioides in plates; format: cell-based
Description: (§7) Colby's method is used to determine if synergy exists for a combination of active ingredients. According to Colby, the expected action (E) of active ingredients A+B is: [formula] • where E=expected efficacy, A and B=the efficacy of two active ingredients A and B at a given dose. When the percentage of control observed (O) for the combination is greater than the expected (E) percentage, there is a synergistic effect. The synergism ratio (R) is calculated as the ratio between the expected values and observed values. […] The compositions were diluted with water. Each formulation with active ingredient is diluted with water and biological efficacy trials on target fungi are conducted.

Alternaria solani = experiment: Activity against Alternaria solani in plates; format: cell-based
Description: as §7

Ramularia collo-cygni = experiment: Activity against Ramularia collo-cygni in plates; format: cell-based
Description: as §7

Tetranychus urticae = experiment: Activity of Sulphur + Fluazinam against Tetranychus urticae in plates; format: in vivo
Description: as §1, §2, §3, §4, §5, §6

Botrytis cinerea = experiment: Activity against Botrytis cinerea in plates; format: cell-based
Description: as §7

Zymoseptoria tritici = experiment: Wheat yield increase when applied for Zymoseptoria tritici control; format: in vivo
Description: as §5
(§8) Each formulation with active ingredient is diluted with water and biological efficacy trials on target fungi are conducted.

Venturia inaequalis [3] = experiment: Apple fruits classes of damage for Venturia inaequalis control; format: in vivo; details: 14 days after last application; for Class 1 (%): class 1 = no damage; for Class 2 (%): class 2 = 2-3 spots per fruit; for Class 3 (%): class 3 = more than 3 spots per fruit
Description: The fungicidal compounds A (sulphur) and B (mix partner) are formulated as equivalent compositions to eliminate the effects of differing formulation inerts on biological activity. Efficacy of the fungicidal compositions is evaluated with reference to a scale of 0% to 100% in comparison with untreated control plots. 0 means no control and 100 means complete control of the target disease.
as §5, §8

Venturia inaequalis [4] = experiment: Sulphur + Difenoconazole on apple fruits incidence for Venturia inaequalis control; format: in vivo; details: 4 days after last application
Description: as §7

With Fluazinam the “Observed % control (O)” value ([1]; 200 g ai/ha) was 21.7%, the “Observed % control (O)” value ([1]; 250 g ai/ha) was 23.6% and the “Observed % control (O)” value ([1]; 300 g ai/ha) was 24.1%. For the same compound, the “Observed % control (O)” value ([1]; 350 g ai/ha) was 33.6%, the “Observed % control (O)” value ([2]; rate 150 g/ha) was 60.8% and the “Observed % control (O)” value (Alternaria solani; rate 150 g/ha) was 57.5%. For the same compound, the “Observed % control (O)” value (Ramularia collo-cygni; rate 150 g/ha) was 36.3%, the “Observed % control (O)” value (Tetranychus urticae; 200 g ai/ha) was 27.5% and the “Observed % control (O)” value (Tetranychus urticae; 250 g ai/ha) was 32.5%. The “Observed % control (O)” value (Tetranychus urticae; 300 g ai/ha) was 32.5%, the “Observed % control (O)” value (Tetranychus urticae; 350 g ai/ha) was 37.5% and the “Observed % control (O)” value (Botrytis cinerea; rate 150 g/ha) was 64.4%.
`CC1COC(Cn2cncn2)(c2ccc(Oc3ccc(Cl)cc3)cc2Cl)O1` (centres unmarked) [Difenoconazole] was tested, and the “Yield increase versus the untreated (%)” value (Zymoseptoria tritici; untreated = 100, rate 75 g/ha) was 102.26%, the “Yield increase versus the untreated (%)” value (Zymoseptoria tritici; untreated = 100, rate 125 g/ha) was 109.14% and the “Observed % control (O)” value ([2]; rate 25 g/ha) was 58.4%. The “Class 1 (%)” value (Venturia inaequalis [3]; rate 37.5 g/ha) was 92.5%, the “Class 1 (%)” value (Venturia inaequalis [3]; rate 50 g/ha) was 93.5% and the “Class 2 (%)” value (Venturia inaequalis [3]; rate 37.5 g/ha) was 5.2%. For the same compound, the “Class 2 (%)” value (Venturia inaequalis [3]; rate 50 g/ha) was 3.3%, the “Class 3 (%)” value (Venturia inaequalis [3]; rate 37.5 g/ha) was 2.3% and the “Class 3 (%)” value (Venturia inaequalis [3]; rate 50 g/ha) was 3.3%. For the same compound, the “Observed % control (O)” value (Alternaria solani; rate 25 g/ha) was 60.6%, the “Observed % control (O)” value (Ramularia collo-cygni; rate 25 g/ha) was 73.9% and the “Observed % control (O)” value (Botrytis cinerea; rate 25 g/ha) was 62.5%. The “Observed % control (O)” value (Venturia inaequalis [4]; rate 37.5 g/ha) was 67.90% and the “Observed % control (O)” value (Venturia inaequalis [4]; rate 50 g/ha) was 69.40%.

Reference: patent US20260256144A1, “FUNGICIDAL MIXTURE COMPOSITION COMPRISING SULPHUR” (ADAMA MAKHTESHIM LTD., priority 2022, published 2026)
